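Interpolation was linear, between the two tested concentrations surrounding the appropriate level; five concentrations were tested over 48 hours in 96-well plates. GI50: concentration for 50% inhibition of growth.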 Calls of active or inactive are those of the source. No stated cut-off is given here; in the data, active = GI50 up to about 1.1 µM and inactive = higher.
How the values were obtained:
Assay in all cases: NCI anticancer screen, dose series, 48 h
[1] = tested on: A498
[2] = tested on: BT-549
[3] = tested on: CCRF-CEM
[4] = tested on: COLO 205
[5] = tested on: HCT-15
[6] = tested on: HL-60
[7] = tested on: HOP-92
[8] = tested on: HT-29
[9] = tested on: LOX IMVI
[10] = tested on: NCI-H23
[11] = tested on: NCI-H522
[12] = tested on: OVCAR-3
[13] = tested on: RXF 393
[14] = tested on: SK-MEL-2
[15] = tested on: SK-MEL-5
[16] = tested on: SK-OV-3
[17] = tested on: SNB-75
[18] = tested on: SW-620
[19] = tested on: TK-10
[20] = tested on: UACC-257

Row | Structure (SMILES) | GI50 [1] | GI50 [2] | GI50 [3] | GI50 [4] | GI50 [5] [µM] | GI50 [6] | GI50 [7] | GI50 [8] | GI50 [9] | GI50 [10] | GI50 [11] | GI50 [12] | GI50 [13] | GI50 [14] | GI50 [15] | GI50 [16] | GI50 [17] | GI50 [18] | GI50 [19] | GI50 [20]
1 | CCCCN(c1ccccc1)c1ncnc2c1cnn2C | 23.3 µM (inactive) | 20.3 µM (inactive) | 21.3 µM (inactive) | > 100 µM (inactive) | 35.4 | 19.1 µM (inactive) | 25.7 µM (inactive) | 29.9 µM (inactive) | 46.3 µM (inactive) | 30.1 µM (inactive) | 19.9 µM (inactive) | 24.8 µM (inactive) | 23.4 µM (inactive) | 27.5 µM (inactive) | > 100 µM (inactive) | 50.1 µM (inactive) | 11.7 µM (inactive) | 29.2 µM (inactive) | 39.2 µM (inactive) | 28.7 µM (inactive)
2 | CC(=O)C(C(c1ccccc1)N1CCOCC1)N1CCOCC1 (stereo not given) | > 100 µM (inactive) | > 100 µM (inactive) | 16.9 µM (inactive) | > 100 µM (inactive) | > 100 | > 100 µM (inactive) | > 100 µM (inactive) | > 100 µM (inactive) | > 100 µM (inactive) | > 100 µM (inactive) | > 100 µM (inactive) | > 100 µM (inactive) | > 100 µM (inactive) | > 100 µM (inactive) | > 100 µM (inactive) | > 100 µM (inactive) | > 100 µM (inactive) | > 100 µM (inactive) | 22.6 µM (inactive) | 18.5 µM (inactive)
3 | COc1cc(C2c3cc4c(cc3OC(NNC(N)=O)C2C)OCO4)cc(OC)c1O (stereo not given) | 3.41 µM (inactive) | 24.5 µM (inactive) | 2.5 µM (inactive) | 2.59 µM (inactive) | 13 | 0.867 µM (active) | 15.3 µM (inactive) | 3.13 µM (inactive) | 4.06 µM (inactive) | 4.92 µM (inactive) | 0.285 µM (active) | 1.03 µM (active) | 0.598 µM (active) | 6.18 µM (inactive) | 0.91 µM (active) | 3.11 µM (inactive) | 0.805 µM (active) | 1.2 µM (inactive) | 13.8 µM (inactive) | 3.19 µM (inactive)
4 | Fc1cc2nc3n(c2cc1F)C(c1c(F)cccc1F)SC3 (stereo not given) | 29.8 µM (inactive) | 53.2 µM (inactive) |  | 31.3 µM (inactive) | 44 | 16.8 µM (inactive) | 38.8 µM (inactive) | 34.8 µM (inactive) | 38.8 µM (inactive) | 43.9 µM (inactive) | 24.9 µM (inactive) | 34.4 µM (inactive) | 26.9 µM (inactive) | 38.2 µM (inactive) | 17.3 µM (inactive) | 42.7 µM (inactive) | 31.4 µM (inactive) | 45 µM (inactive) | 45.4 µM (inactive) | 46.6 µM (inactive)
5 | CC(C)NC(=O)OCc1c(COC(=O)NC(C)C)c(-c2ccc[n+](COC(=O)C(C)(C)C)c2)n2c1CCC2 | 32.7 µM (inactive) | > 100 µM (inactive) | 24.9 µM (inactive) | > 93.5 µM (inactive) | > 100 | > 53.2 µM (inactive) | > 91.6 µM (inactive) | > 100 µM (inactive) | 46.6 µM (inactive) | 53.1 µM (inactive) | 35 µM (inactive) | > 100 µM (inactive) | 30.5 µM (inactive) | > 73.6 µM (inactive) | > 95.5 µM (inactive) | > 74.1 µM (inactive) | > 89.1 µM (inactive) | > 100 µM (inactive) | > 100 µM (inactive) | > 100 µM (inactive)
6 | O=C(/C=C/c1ccc2c(c1)OCO2)CC(=O)C(=O)c1c[nH]c2ccccc12 | 65.5 µM (inactive) | 25.9 µM (inactive) | 26.7 µM (inactive) | 35.3 µM (inactive) | 36.8 | 29.2 µM (inactive) | 81.7 µM (inactive) | 36.3 µM (inactive) | 40.2 µM (inactive) | 34.2 µM (inactive) | 68.5 µM (inactive) | 32 µM (inactive) | 31.6 µM (inactive) | > 100 µM (inactive) | 58.3 µM (inactive) | 35.2 µM (inactive) | 29.3 µM (inactive) | 29.4 µM (inactive) | 38.4 µM (inactive) | 51.8 µM (inactive)
7 | NC(Cc1ccc(O)cn1)C(=O)O (stereo not given) | > 100 µM (inactive) | > 100 µM (inactive) |  | > 100 µM (inactive) | > 100 | 33.8 µM (inactive) | > 100 µM (inactive) | > 100 µM (inactive) | > 100 µM (inactive) | > 100 µM (inactive) | > 100 µM (inactive) | > 100 µM (inactive) | > 100 µM (inactive) |  | > 100 µM (inactive) |  | > 100 µM (inactive) | > 100 µM (inactive) | > 100 µM (inactive) | > 100 µM (inactive)
8 | C=C1C(=O)O[C@H]2C/C(C)=C/CC/C(C)=C/CC[C@@](C)(O)[C@@H](I)C[C@@H]12 | 17.7 µM (inactive) | 1.13 µM (inactive) | 1.49 µM (inactive) | 9.44 µM (inactive) | 6.04 | 2.58 µM (inactive) | 2.34 µM (inactive) | 6.52 µM (inactive) | 0.234 µM (active) | 0.0501 µM (active) | 2.64 µM (inactive) | 12.3 µM (inactive) | 3.84 µM (inactive) | 11.7 µM (inactive) | 11.8 µM (inactive) | 16 µM (inactive) | 11 µM (inactive) | 4.25 µM (inactive) | 11.5 µM (inactive) | 12.4 µM (inactive)
9 | C/C=C1/CN2CCc3c([nH]c4ccccc34)[C@@H]2C[C@@H]1Cc1nccc2c1[nH]c1cc(O)ccc12 | 1.93 µM (inactive) | 13.9 µM (inactive) | 2.9 µM (inactive) | 2.78 µM (inactive) | 2.9 | 2.45 µM (inactive) | 6.38 µM (inactive) | 1.87 µM (inactive) | 2.77 µM (inactive) | 2.1 µM (inactive) | 1.89 µM (inactive) | 2.39 µM (inactive) | 2.24 µM (inactive) | 2.05 µM (inactive) | 1.57 µM (inactive) | 2.17 µM (inactive) | 1.64 µM (inactive) | 2.82 µM (inactive) | 1.95 µM (inactive) | 2.41 µM (inactive)
10 | CC1(C)C(CBr)=[N+]([O-])C(C)(C)N1O | > 10 µM (inactive) | 2.64 µM (inactive) | 0.604 µM (active) | 1.83 µM (inactive) | 2.55 | > 4.6 µM (inactive) | 2.27 µM (inactive) | > 8.75 µM (inactive) | 3.7 µM (inactive) | 3.59 µM (inactive) | 1.44 µM (inactive) | 3.32 µM (inactive) | 3.31 µM (inactive) | > 9.29 µM (inactive) | 4.16 µM (inactive) | > 10 µM (inactive) | 3.17 µM (inactive) | 2.25 µM (inactive) | 5.5 µM (inactive) | 8.99 µM (inactive)
11 | CCN1CC2(C)CCC(OC)C34C5CC6CCC(O)(C5C(=O)O6)C(C(O)C23)C14 (stereo not given) | > 100 µM (inactive) | > 100 µM (inactive) | > 100 µM (inactive) | > 100 µM (inactive) | > 100 | > 100 µM (inactive) | > 100 µM (inactive) | > 100 µM (inactive) | > 100 µM (inactive) | > 100 µM (inactive) | > 100 µM (inactive) | > 100 µM (inactive) | > 100 µM (inactive) | > 100 µM (inactive) | > 100 µM (inactive) | > 100 µM (inactive) | > 100 µM (inactive) | > 100 µM (inactive) | > 100 µM (inactive) | > 100 µM (inactive)
12 | Clc1ccc(Cc2nc3cc(CCN4CCN(c5ccccc5)CC4)ccc3[nH]2)cc1 | 14.4 µM (inactive) | 16.4 µM (inactive) | > 100 µM (inactive) | 4.06 µM (inactive) | 15 | 12.6 µM (inactive) | 21 µM (inactive) | 5.58 µM (inactive) | 12.6 µM (inactive) | 13.8 µM (inactive) | 14.1 µM (inactive) | 13 µM (inactive) | 5.24 µM (inactive) | 15 µM (inactive) | 12.6 µM (inactive) | 17.9 µM (inactive) | 12.8 µM (inactive) | > 100 µM (inactive) | 12.8 µM (inactive) | 5.42 µM (inactive)
13 | CC1CCC(=O)C(C(=O)CC2CC(=O)N(C)C(=O)C2)C1 (stereo not given) | > 100 µM (inactive) | > 100 µM (inactive) | > 100 µM (inactive) | > 100 µM (inactive) | > 100 | > 100 µM (inactive) | > 100 µM (inactive) | > 100 µM (inactive) | > 100 µM (inactive) | > 100 µM (inactive) | > 100 µM (inactive) | > 100 µM (inactive) | > 100 µM (inactive) | > 100 µM (inactive) | > 100 µM (inactive) | > 100 µM (inactive) | 35.3 µM (inactive) | > 100 µM (inactive) | > 100 µM (inactive) | > 100 µM (inactive)
14 | NC(=O)CN1C=CCC(C(N)=O)=C1 [CARICOTAMIDE] | > 100 µM (inactive) | > 100 µM (inactive) | > 100 µM (inactive) | > 100 µM (inactive) | > 100 | > 100 µM (inactive) | > 100 µM (inactive) | > 100 µM (inactive) | > 100 µM (inactive) | > 100 µM (inactive) | > 100 µM (inactive) | > 100 µM (inactive) | > 100 µM (inactive) | > 100 µM (inactive) | > 100 µM (inactive) | > 100 µM (inactive) | > 100 µM (inactive) | > 100 µM (inactive) |  | > 100 µM (inactive)
